Here are results for two molecules from US20080319017A2, “Non-Anilinic Derivatives of Isothiazol-3(2H)-Thione 1,1-Dioxides As Liver X Receptor Modulators” (ASTRAZENECA AB, priority 2005, published 2008).

This test has as its target T1, human LXRalpha (Homo sapiens, UniProt Q13133).
T1 construct: human LXRalpha (amino acid 205-447); expressed in transfected cells; host or cells: U2/OS osteosarcoma cells, electroporated with pSGGAL-LXRalpha (pSG5 backbone)
T1 sequence (Q13133 205-447): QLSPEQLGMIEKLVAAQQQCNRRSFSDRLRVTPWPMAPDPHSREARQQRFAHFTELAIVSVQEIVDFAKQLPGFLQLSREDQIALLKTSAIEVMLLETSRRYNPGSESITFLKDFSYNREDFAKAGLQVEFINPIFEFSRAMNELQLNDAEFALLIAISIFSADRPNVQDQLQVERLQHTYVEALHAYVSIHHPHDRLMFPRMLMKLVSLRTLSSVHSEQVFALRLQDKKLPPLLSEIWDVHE
Kind of test: Transactivation assay (reporter gene assay), GAL4-LXRalpha LBD luciferase in U2/OS cells. Type of test: cell-based. The following applies: U2/OS osteosarcoma cells, 48 h incubation, read-out: EC50 for LXRα in the reporter gene assay. The procedure:
Expression vectors were prepared by inserting the ligand binding domain cDNA (complementary DNA) of human LXRalpha (amino acid 205-447) and LXRbeta (amino acid 216-461) in frame with, 3′ to the yeast GAL4 transcription factor DNA binding domain and the nuclear localization signal from the T-antigen of Polyoma Virus in the eucaryotic expression vector pSG5 (Stratagene). The resulting expression vectors pSGGAL-LXRalpha and pSGGAL-LXRbeta were used in cotransfection experiments together with the pGL3 luciferase reporter plasmid containing a minimal SV40 promoter (Promega) and five copies of the UAS GAL4 recognition site. 2.5 μg pSGGAL-LXRalpha or beta were mixed with 25 μg pGL3 5×UAS and 22.5 μg pBluscript (Stratagene) in 0.95 mL ice cold PBS containing approx. 4-9 milj. U2/OS osteosarcoma cells. After a five minute incubation on ice the cell/DNA mixture was electroporated in 0.4 cm cuvettes at 960 μF, 230 V using a BioRad electroporator and diluted to 0.32 milj cells/mL in complete DMEM [Dulbecco's Modified Eagle Medium w/o phenol red, (Gibco 11880-028) including 10% FBS (Foetal Bovine Serum), 1% PEST (Penicillin Streptomycin), 20 mM Hepes, 2 mM L-Glutamine and 0.36% Glucose Gibco 31966-021] medium. […] Luciferase activity was measured as Luminescence in the Wallac Victor reader after 15 min. incubation at room temperature. […]
In general terms: In a reporter assay the amount or activity of a reporter protein is the signal.

Consider `CC(C)N1C(=S)C(NC2CCN(c3ncc(C(F)(F)F)cc3Cl)CC2)=C(c2ccccc2)S1(=O)=O` [Example 1, 4-({1-[3-Chloro-5-(trifluoromethyl)pyridin-2-yl]piperidin-4-yl}amino)-2-isopropyl-5-phenylisothiazole-3(2H)-thione 1,1-dioxide], for which the EC50 – broadly, the midpoint of the concentration-response curve – worked out at 3.1 µM. Consider `CC(C)N1C(=S)C(NCCCCc2ccccc2)=C(c2ccccc2)S1(=O)=O` [Example 2, 2-Isopropyl-5-phenyl-4-[(4-phenylbutyl)amino]isothiazole-3(2H)-thione 1,1-dioxide], for which the EC50 amounted to 10.5 µM.
